The values below come from patent publication US20160058743A1, “METHODS FOR TREATING SENSORIMOTOR IMPAIRMENTS ASSOCIATED WITH CERTAIN TYPES OF STROKE USING AMINOPYRIDINES” (ACORDA THERAPEUTICS, INC., priority 2013, published 2016).

Holding throughout (assay type): in vivo, Sprague Dawley rats
Test [1] relates to rats with middle cerebral artery occlusion (MCAO). The test is described as follows: Forelimb placing test after MCAO. The note with it: for Forelimb Placing Total Score: 0=normal, 12=maximally impaired. The source says:
In particular, the MCAO model in Sprague Dawley rats that was utilized in the experiments presented below mimics the conditions in human ischemic stroke. In this model, focal cerebral infarcts were made by permanent occlusion of the proximal right middle cerebral artery (MCA) using a modification of the method of Tamura et al. (No To Shinkei 1986; 38:747-51). Briefly, the temporalis muscle was bisected and reflected through an incision made midway between the eye and the ear canal. The proximal MCA was exposed through a subtemporal craniectomy without removing the zygomatic arch and without transecting the facial nerve.
In this experiment, Sprague Dawley rats were anesthetized, subjected to a surgery resulting in middle cerebral artery occlusion (MCAO), treated with and without 4-aminopyridine and behavioral assessments were performed as described below. Treatment was initiated at 4 weeks after stroke.
Dosing and Treatment: Rats were treated in accordance with the dosing schedule shown in Tables 2A, 2B, 3 and FIG. 2, with each Phase being a two week period of time. A solution of 4-AP was used in this experiment. Dosing was started at 4 weeks after ischemic event. 4-aminopyridine was dissolved in water for injection (WFI, Cellgro) and sterile filtered. Final concentrations of 0.315 mg/mL or 1.0 mg/mL of 4-aminopyridine were delivered at 2 mL/kg by gastric gavage, resulting in final doses of 0.63 mg/kg and 2 mg/kg respectively. Vehicle control treatment was WFI delivered at 2 mL/kg by gastric gavage. This study was divided into three treatment phases (1-3) with each randomized cohort of animals receiving a different dose level during each of the treatment phases. Starting on day 30 after MCAO (Day 30, start of phase 1), the animals received gavage dosing of solutions (2 mL/kg) approximately 12 hours apart, for a total of five doses. The same schedule was repeated with different treatment on Day 44 and Day 58 for phase 2 and 3 of the study, respectively. Animals were not treated during the 10 days between phases (washout period).
Treatment groups: Dosing was started 4 weeks after MCAO surgery. During these 4 weeks, weekly behavioral assessments, as defined below, were performed. Two dose levels of 4-AP plus vehicle control were assessed, with treatment starting at 4 weeks after ischemic event. All dosing was via gastric gavage, volume not to exceed 2 mL/kg. Animals were given the first dose and behavioral assessments were performed starting 60 minutes after dosing. Animals then received the second dose that day at the appropriate time and b.i.d (preferably every 12 hours) thereafter for 2 more days (3 total days of dosing, 5 total doses). One hour after the 5th dose, animals were subjected to behavioral assessments as defined below. Following the final behavioral assessment, drug was withdrawn for 10 or 11 days, behavior was re-assessed, and then animals were re-challenged with a cross-over treatment (Phase 2 of Table 2B) as described in Tables 2A, 2B and 3, followed by the same behavioral testing and dosing regimen. This cross-over was repeated one more time as well (Phase 3 of Table 2B) (see FIG. 2).
Behavioral test details: Behavioral evaluations were done by evaluators blinded to treatment assignment. Blinded assessments of sensorimotor function were performed just prior to MCAO surgery, 24 hours after MCAO surgery and weekly thereafter until the first phase of dosing using limb placing and body swing behavioral tests. As described above, behavioral assessments were timed exactly with dosing times. Animals were tested one hour after the 1st and 5th doses of each phase (i.e., Days 30 and 32 of the first phase, Days 44 and 46 of the second phase; and Days 58 and 60 of the third phase); animals were also tested during the washout periods on Days 42 and 56. Animals were given the first dose, behavioral assessments were performed starting 60 minutes later, and blood was collected 90 minutes after dosing. […]

Test [2] shares this test system. The test is described as follows: Infarct volume measurement (H&E staining). The note with it: % of contralateral hemisphere; for Mean infarct volume (%): Example 2 crossover, Day 63. The procedure:
Euthanasia and post-mortem processing: Infarct Volume analysis. After the last behavioral assessment, rats were anesthetized deeply with ketamine/xylazine (100 mg/kg ketamine, 10 mg/kg xylazine, i.p.) and perfused transcardially with normal saline (with heparin 2 unit/ml) followed by 4% paraformaldehyde or formalin on Day 63. Brains were harvested and processed for histological assessment. A subset of 10 brains per group was processed for infarct volume measurement (H&E staining).
Infarct measurement: Brains were embedded in paraffin and 5 micron thick coronal sections were cut using a microtome. Sections were stained with hematoxylin and eosin (H&E), using standard methods. Seven coronal sections (+4.7, +2.7, +0.7, −1.3, −3.3, −5.3 and −7.3, compared to bregma respectively) from each brain were photographed by a digital camera, and the infarct area on each slice was determined by NIH Image (Image J) using the “indirect method” (area of the intact contralateral [left] hemisphere−area of intact regions of the ipsilateral [right] hemisphere) to correct for brain edema. Infarct areas were then summed among slices and multiplied by slice thickness (the distance between sections) to give total infarct volume, which was expressed as a percentage of intact contralateral hemispheric volume.
Euthanasia and post-mortem processing: At day 70 after MCAO, rats were anesthetized as described in Example 2, above.
Infarct measurement: Infarct measurement was performed as described in Example 2, above.

Test [3] has the same test system. The test is described as follows: Hindlimb placing test after MCAO.

“And” between values parts separate entries of the source, which are not always exact repeats. Equal entries are not always repeated. “Also recorded” adds a separate entry of the source.

Turning to `Nc1ccncc1` [4-AP, 4-aminopyridine], in test [1] (Example 2, low (0.63 mg/kg) or high (2 mg/kg) dose b.i.d. p.o., started 4 weeks post MCAO, dose-responsive, reversible), the “Effect on forelimb function (forelimb placing test)” value was “effective to improve forelimb function; also recorded: significant improvement”. For the same molecule, the “Forelimb Placing Total Score” value is 4.20 in test [1] (Group 2, D 30 post-MCAO, Low 4-AP 0.63 mg/kg b.i.d. p.o., 1 h after 1st dose, group Mean, N=15); 1.90 in test [1] (Group 2, D 58 post-MCAO, High 4-AP 2.0 mg/kg b.i.d. p.o., 1 h after 1st dose, group Mean, N=15); 2.67 in test [1] (Group 3, D 44 post-MCAO, High 4-AP 2.0 mg/kg b.i.d. p.o., 1 h after 1st dose, group Mean, N=15); 4.00 (3×) and 1.00 and 2.50 and 3.00 (3×) and 4.50 (2×) and 0.00 (3×) and 5.00 and 1.50 in test [1] (Group 3, D 44 post-MCAO, High 4-AP 2.0 mg/kg b.i.d. p.o., 1 h after 1st dose, individual rats); 1.33 in test [1] (Group 3, D 46 post-MCAO, High 4-AP 2.0 mg/kg b.i.d. p.o., 1 h after 5th dose, group Mean, N=15); 3.00 (3×) and 0.00 (5×) and 2.00 and 1.50 (3×) and 1.00 (2×) and 2.50 in test [1] (Group 3, D 46 post-MCAO, High 4-AP 2.0 mg/kg b.i.d. p.o., 1 h after 5th dose, individual rats). Besides, the “Forelimb Placing Total Score” value in test [1] (Group 3, D 58 post-MCAO, Low 4-AP 0.63 mg/kg b.i.d. p.o., 1 h after 1st dose, group Mean, N=15) is 2.00; in test [1] (Group 3, D 58 post-MCAO, Low 4-AP 0.63 mg/kg b.i.d. p.o., 1 h after 1st dose, individual rats), 3.00 (4×) and 0.50 and 2.00 and 3.50 and 1.50 (2×) and 2.50 (2×) and 4.00 and 0.00 (3×); in test [1] (Group 3, D 60 post-MCAO, Low 4-AP 0.63 mg/kg b.i.d. p.o., 1 h after 5th dose, group Mean, N=15) it was 1.80; in test [1] (Group 3, D 60 post-MCAO, Low 4-AP 0.63 mg/kg b.i.d. p.o., 1 h after 5th dose, individual rats) it was 3.00 (4×) and 1.00 (2×) and 2.00 (2×) and 3.50 and 0.50 and 2.50 (2×) and 0.00 (3×). In addition, the “Mean infarct volume (%)” value is given as 45.0 (±1.8) % in test [2] (Group 1 (H, L, V)); 41.4 (±2.3) % in test [2] (Group 2 (L, V, H)); 39.0 (±3.3) % in test [2] (Group 3 (V, H, L)). The “Mean (SE) Infarct Volume (%)” value in test [2] (Example 17, 4-AP 0.5, 1 and 2 mg/kg b.i.d. Days 56-65, brains at day 70 after MCAO) was 40.0 (2.3) %. The “Hind limb placing score compared to vehicle” value in test [3] (Example 17, 0.5 mg/kg b.i.d. p.o., Day 59 post-MCAO) is listed as “improved with the low dose but did not reach significance”. Besides, the “Hind limb test compared to vehicle” value in test [3] (Example 17, 1 mg/kg b.i.d. p.o., Day 62 post-MCAO, p<0.05) is reported as “measureable improvement”. Moreover, in test [3] (Example 17, 2 mg/kg b.i.d. p.o., Day 65 post-MCAO, p<0.001), the “Hind limb function compared to vehicle” value is given as “significant improvements”.
